Results taken from patent publication US20160296506A1, “Methods and Compositions for Treating HIV Infection” (priority 2012, published 2016).

Experiments:
[1] = PO plasma and brain levels; assay type: in vivo, mice; details: dose 10 mg/kg
Procedure: The pharmacokinetic behavior of a representative disclosed PLD inhibitor of the present invention was assessed following […]. Briefly, mice were administered a single dose of a representative PLD inhibitor, either VUO364739 or VU359595 (10 mg/kg) by either intravenous injection or by oral administration. Plasma samples and tissue samples (brain) were isolated at various time points following euthanizing animal. The samples were flash frozen and stored at −80° C. Analysis was carried out by LC-MS/MS following extraction.

IV pharmacokinetics = assay type: in vivo, mice; details: dose 1 mg/kg; for half-life / Vd: mouse, plasma; for Vd: read-out: Vdss
Plasma protein binding = assay type: in vitro ADME
HIV-1 [2] = test: HIV-1 infection in PMA-stimulated THP-1 cells (flow cytometry); assay type: cell-based; details: 10 μM, 4 h pretreatment, HIV-1-GFP, 72 h post-infection, FIG. 10
HIV-1 [3] = test: HIV-1 infection of U87.CD4.CXCR4 cells; assay type: cell-based; details: data not shown
CAD = test: dNTP levels with CAD overexpression; assay type: cell-based; details: FIG. 13
THP-1 cells = test: dNTP levels in THP-1 cells (HPLC-MS); assay type: cell-based; details: statement
Procedure: Briefly, Undifferentiated THP-1 cells (5×10̂6 cells/well) were treated with various inhibitors (10 μM EVJ, 10 μM JWJ, 100 nM rapamycin, 250 nM torin1, or 1 μM Go6976) for 16 h before harvest and extraction for HPLC-MS analysis of dNTP levels. Data represents analysis of triplicate samples.
Briefly, THP-1 cells (2.5×10^5 cells in 0.5 mL of c-RPMI (5×10^5/mL)/well) were seeded into 24-well plates and differentiated with 0.1 μM PMA for 24 h. Cells were then pretreated for 4 h with inhibitors (10 μM EVJ, 10 μM JWJ, 100 nM rapamycin, 250 nM torin1, or 10 μM concentration of two AKT inhibitors for comparison). Cells were then infected with HIV-1-GFP in the continued presence of inhibitors. Levels of infection were determined by flow cytometry (BD Biosciences FACSCalibur) 72 h post-infection. […] This difference is likely due to an increase in PLD1 activity in PMA-treated THP-1 cells.

[4] = tested on: carbamoyl-phosphate synthetase 2, aspartate transcarbamylase, and dihydroorotase (CAD); test: CAD activity (phosphorylation at S1859) in IL-2/PHA-stimulated CD4 T cells; assay type: cell-based
Procedure: (§1) PLD inhibitors modulate intracellular deoxyribonucleotides levels. […] CD4 T-cells experiments were performed with ani-CD3/CD28-currently completing experiments with IL-2/phytohaemagglutinin (PHA)-stimulated CD4 T cells.

U87MG cells = test: SILAC proteomic analysis on U87MG cells; assay type: cell-based; details: EVJ on U87MG cells, FIG. 12
Procedure: A SILAC proteomic analysis was conducted using the PLD1-preferring inhibitor EVJ on U87MG cells.

HIV-1 [5] = test: HIV-1 replication in activated primary CD4+ T cells; assay type: cell-based, human; details: 10 μM, PHA/IL2 activated after EVJ treatment, FIG. 14
primary T-cells = test: dNTP increases in stimulated primary CD4 T-cells; assay type: cell-based, human; details: FIG. 14
Procedure: as §1

## O=C(NCCN1CCC2(CC1)C(=O)NCN2c1cccc(F)c1)c1ccc2ccccc2c1 [No. 1, N-(2-(1-(3-fluorophenyl)-4-oxo-1,3,8-triazaspiro [4.5]decan-8-yl)ethyl)-2-naphthamide]
[1]
  Brain (ng/kg): BLQ
  Brain: Plasma: BLQ
  Plasma: 29 ng/kg
IV pharmacokinetics
  CI: 60.7 mL/min/kg
  half-life: 0.78 h
  Vd: 4.7 L/kg
Plasma protein binding
  Plasma Protein Binding (% bound): 98.1 % bound
HIV-1 [2]
  HIV-1 replication in THP-1 cells, undifferentiated vs PMA-differentiated: inhibits HIV-1 replication under both conditions
HIV-1 [3]
  HIV-1 infection of U87.CD4.CXCR4 cells: inhibit HIV-1 infection

## NC1(c2ccc(-c3nc4ccn5c(=O)[nH]nc5c4cc3-c3ccccc3)cc2)CCC1 [MK2206, reference compound]
CAD
  dNTP levels upon CAD over expression: continues to block dNTP levels
THP-1 cells
  Deoxyribonucleotide (dNTP) levels: potently reduced

## CNC(=O)c1cccc(-c2ccc3c(N4CCOC[C@@H]4C)nc(N4CCOC[C@@H]4C)nc3n2)c1 [AZD2014]
[4]
  activity of CAD, phosphorylation at activation residue S1859: suppress activity

## CCC(=O)N1CCN(c2ccc(-n3c(=O)ccc4cnc5ccc(-c6cnc7ccccc7c6)cc5c43)cc2C(F)(F)F)CC1 [Torin1]
THP-1 cells
  Deoxyribonucleotide (dNTP) levels: potently reduced
[4]
  activity of CAD, phosphorylation at activation residue S1859: suppress activity

## C[C@@H](CN1CCC(n2c(=O)[nH]c3cc(Br)ccc32)CC1)NC(=O)[C@@H]1C[C@@H]1c1ccccc1 [No. 2, (1R,2S)-N-((S)-1-(4-(5-bromo-2-oxo-2,3-dihydro-1H-benzo[d]imidazol-1-yl)piperidin-1-yl)propan-2-yl)-2-phenylcyclopropane carboxamide]
U87MG cells
  signaling pathway changed (network analysis): mTORC1 signaling is the predominant signaling pathway changed
[1]
  Brain: 29 ng/kg
  Plasma: 39.9 ng/kg
[1]; mouse, brain/plasma
  Kp: 0.73
IV pharmacokinetics
  CI: 61.5 mL/min/kg
  half-life: 1.52 h
  Vd: 8.1 L/kg
HIV-1 [5]
  HIV-1 replication in activated primary CD4+ T cells: inhibits HIV-1 replication
CAD
  dNTP levels upon CAD over expression: partially rescues the dNTP biosynthetic phenotype
Primary T-cells
  dNTP increases in CD4-receptor stimulated primary T-cells from human donors: blunt dNTP increases
Plasma protein binding
  Plasma Protein Binding (% bound): 97.9 % bound
HIV-1 [2]
  HIV-1 replication in THP-1 cells, undifferentiated vs PMA-differentiated: more robust effect on HIV-1 replication in PMA-differentiated THP-1 cells
HIV-1 [3]
  HIV-1 infection of U87.CD4.CXCR4 cells: inhibit HIV-1 infection
[4]
  activity of CAD, phosphorylation at activation residue S1859: suppress activity

## NC(=O)NO [Hydroxyurea]
[4]
  activity of CAD, phosphorylation at activation residue S1859: comparative modest effects
